Columns and labels:
guinea pig left atria = test: Positive inotropic effect in guinea pig left atria; conditions: 37°; for EC50: left atria paced at 2Hz, cumulative addition to maximum 10^-4, read-out: EC50 (concentration that increases DT by 50% above the control DT); for Intrinsic Activity (ratio of the maximum effect of the test compound to that of Bay K 8644): relative to Bay K 8644, left atria paced at 2Hz
Method: Guinea pigs are killed by cervical dislocation. The left atria are removed and mounted at 1 gm resting tension in tissue baths containing oxygenated Krebs bicarbonate solution which is kept at 37°. The left atria are electrically paced at 2Hz with square wave pulses of 1 msec duration. The voltage is set at 1.5× threshold level.
After a one hour equilibration period, control values for developed tension (DT, gm) are recorded. Test compounds are then added to the baths, in a cumulative manner to a maximum concentration of 10^-4, to obtain a concentration-response curve. Treatment values of DT are obtained after the rug effect has reached a plateau and the exposure time for each concentration is 5-8 minutes. Percent change of the treatment value from the control value is calculated at each concentration of the test compound.

alpha1 -adrenoceptors = test: [^3 H]-prazosin binding assay (affinity for alpha1-adrenoceptors); conditions: rat brain membranes, 0.2 nM [^3 H]-prazosin, 60 minutes at 25°
Method: The [^3 H]-prazosin binding assay was carried out according to the method described by Timmermans, P. B. M. W. M., Schoop, A. M. C., and Van Zwieten, P. A.: Biochem Pharmacol., 31, 899-905, 1982 (1). The reaction mixture contained partially purified rat brain membranes (source of alpha1 -adrenoceptors), 0.2 nM [^3 H]-prazosin with or without potential displacer in Tris buffer. The mixture was incubated for 60 minutes at 25° and subsequently terminated by rapid filtration through glass fiber-filter. Receptor-bound [^3 H]-prazosin trapped in the filter was quantitated by scintillation counting. The inhibitory concentration (IC50) of potential displacer which gives 50% displacement of the total specifically bound [^3 H]-prazosin is presented as a measure of the affinity of such compound for the alpha1 -adrenoceptor.

Ca^2 + channels = molecular target: T1, Ca^2 + channels (Rattus norvegicus, UniProt P22002); test: [^3 H]-Nitrendipine binding assay (affinity for calcium channels); conditions: rat cardiac microsomes, 0.5 nM [^3 H]-nitrendipine, 60 minutes at 25°
T1 construct: rat cardiac microsomes (source of Ca^2 + channels); from tissue; host or cells: rat cardiac microsomes
T1 sequence (P22002 whole entry, other chains not shown): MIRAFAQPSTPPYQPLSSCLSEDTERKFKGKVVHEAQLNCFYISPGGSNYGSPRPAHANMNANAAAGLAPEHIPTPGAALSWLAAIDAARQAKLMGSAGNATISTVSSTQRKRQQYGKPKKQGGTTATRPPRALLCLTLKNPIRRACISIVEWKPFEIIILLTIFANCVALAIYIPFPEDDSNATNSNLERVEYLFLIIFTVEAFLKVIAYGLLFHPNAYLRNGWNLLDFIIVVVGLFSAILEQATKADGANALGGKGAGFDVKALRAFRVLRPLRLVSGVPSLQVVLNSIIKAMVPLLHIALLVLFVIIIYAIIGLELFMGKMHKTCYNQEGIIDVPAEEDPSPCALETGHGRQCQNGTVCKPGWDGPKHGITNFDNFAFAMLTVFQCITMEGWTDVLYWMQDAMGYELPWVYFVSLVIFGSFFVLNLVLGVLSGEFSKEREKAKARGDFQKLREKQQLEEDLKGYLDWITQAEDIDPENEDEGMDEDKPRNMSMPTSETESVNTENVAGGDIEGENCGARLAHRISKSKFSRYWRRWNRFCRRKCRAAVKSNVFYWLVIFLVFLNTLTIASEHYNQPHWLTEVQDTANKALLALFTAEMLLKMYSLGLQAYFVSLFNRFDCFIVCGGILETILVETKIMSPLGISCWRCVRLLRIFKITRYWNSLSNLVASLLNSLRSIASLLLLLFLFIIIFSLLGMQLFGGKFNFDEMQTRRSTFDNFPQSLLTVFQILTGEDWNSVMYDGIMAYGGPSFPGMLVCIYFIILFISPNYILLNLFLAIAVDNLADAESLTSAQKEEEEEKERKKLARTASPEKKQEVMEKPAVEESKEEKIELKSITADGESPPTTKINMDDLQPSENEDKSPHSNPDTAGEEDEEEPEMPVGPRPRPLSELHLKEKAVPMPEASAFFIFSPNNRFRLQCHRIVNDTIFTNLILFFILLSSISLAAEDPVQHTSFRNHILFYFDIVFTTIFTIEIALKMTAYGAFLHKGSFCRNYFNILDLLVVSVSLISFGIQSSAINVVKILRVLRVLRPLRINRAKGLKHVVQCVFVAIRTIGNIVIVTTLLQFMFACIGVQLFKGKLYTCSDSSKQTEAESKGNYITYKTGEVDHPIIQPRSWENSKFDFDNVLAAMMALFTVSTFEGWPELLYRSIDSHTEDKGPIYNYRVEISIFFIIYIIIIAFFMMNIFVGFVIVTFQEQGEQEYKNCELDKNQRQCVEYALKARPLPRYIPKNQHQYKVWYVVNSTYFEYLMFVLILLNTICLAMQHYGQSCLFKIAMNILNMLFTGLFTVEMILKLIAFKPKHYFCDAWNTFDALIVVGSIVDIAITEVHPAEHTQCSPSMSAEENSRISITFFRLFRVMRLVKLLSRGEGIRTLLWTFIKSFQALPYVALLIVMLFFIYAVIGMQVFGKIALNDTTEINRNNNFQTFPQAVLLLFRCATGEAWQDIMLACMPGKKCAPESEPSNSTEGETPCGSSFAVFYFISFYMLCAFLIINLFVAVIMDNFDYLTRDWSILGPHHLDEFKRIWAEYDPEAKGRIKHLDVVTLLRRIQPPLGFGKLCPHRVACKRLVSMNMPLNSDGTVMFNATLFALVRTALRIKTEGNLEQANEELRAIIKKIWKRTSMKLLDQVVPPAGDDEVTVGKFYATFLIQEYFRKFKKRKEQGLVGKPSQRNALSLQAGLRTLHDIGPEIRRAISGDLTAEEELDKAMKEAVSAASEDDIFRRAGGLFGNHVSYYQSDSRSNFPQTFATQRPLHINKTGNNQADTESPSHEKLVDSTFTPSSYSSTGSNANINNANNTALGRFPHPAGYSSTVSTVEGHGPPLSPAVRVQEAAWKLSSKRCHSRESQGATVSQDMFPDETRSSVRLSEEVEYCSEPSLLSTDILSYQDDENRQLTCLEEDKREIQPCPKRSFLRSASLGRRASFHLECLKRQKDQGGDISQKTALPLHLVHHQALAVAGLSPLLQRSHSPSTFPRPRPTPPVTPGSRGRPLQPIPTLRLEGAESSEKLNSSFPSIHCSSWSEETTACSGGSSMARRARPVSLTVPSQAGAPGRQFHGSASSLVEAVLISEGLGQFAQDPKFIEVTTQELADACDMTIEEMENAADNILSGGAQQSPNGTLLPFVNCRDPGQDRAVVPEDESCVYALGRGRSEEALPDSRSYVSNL
T1 sequence (P54290 25-944 partner limits assumed, other chains not shown): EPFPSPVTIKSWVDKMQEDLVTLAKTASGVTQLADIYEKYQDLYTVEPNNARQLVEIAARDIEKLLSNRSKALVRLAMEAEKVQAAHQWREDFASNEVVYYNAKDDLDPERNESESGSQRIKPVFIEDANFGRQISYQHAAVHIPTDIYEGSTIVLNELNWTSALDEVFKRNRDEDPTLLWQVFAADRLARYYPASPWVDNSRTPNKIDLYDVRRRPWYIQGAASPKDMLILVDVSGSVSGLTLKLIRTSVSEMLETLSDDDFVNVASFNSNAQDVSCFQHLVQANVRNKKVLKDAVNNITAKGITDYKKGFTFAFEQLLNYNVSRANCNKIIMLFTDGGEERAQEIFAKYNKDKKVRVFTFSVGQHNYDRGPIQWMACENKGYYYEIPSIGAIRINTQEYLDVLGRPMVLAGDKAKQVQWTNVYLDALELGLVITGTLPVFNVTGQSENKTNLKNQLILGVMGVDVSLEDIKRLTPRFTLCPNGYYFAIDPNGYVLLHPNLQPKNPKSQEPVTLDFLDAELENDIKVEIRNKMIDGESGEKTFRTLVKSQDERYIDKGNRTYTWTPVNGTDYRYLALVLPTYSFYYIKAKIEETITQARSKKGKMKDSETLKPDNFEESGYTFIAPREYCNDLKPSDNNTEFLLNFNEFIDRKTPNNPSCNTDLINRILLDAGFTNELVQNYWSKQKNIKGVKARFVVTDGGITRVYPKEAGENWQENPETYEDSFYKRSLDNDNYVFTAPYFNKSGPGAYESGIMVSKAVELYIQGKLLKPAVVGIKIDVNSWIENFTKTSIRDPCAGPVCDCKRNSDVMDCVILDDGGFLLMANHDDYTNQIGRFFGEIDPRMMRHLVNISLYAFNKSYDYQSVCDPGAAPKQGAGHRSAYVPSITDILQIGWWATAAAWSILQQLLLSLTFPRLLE
T1 sequence (P54290 945-1091 partner limits assumed, other chains not shown): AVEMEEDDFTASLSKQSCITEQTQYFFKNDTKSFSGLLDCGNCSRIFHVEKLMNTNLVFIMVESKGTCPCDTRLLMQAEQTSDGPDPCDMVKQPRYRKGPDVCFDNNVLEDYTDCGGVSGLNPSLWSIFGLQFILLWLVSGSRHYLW
Method: [^3 H]-Nitrendipine binding assay was carried out according to the method described by G. T. Bolger, et al., Biochem. Biophys. Res. Comm., 104, 1604-1609, 1982 (1). The reaction mixture contained rat cardiac microsomes (source of Ca^2 + channels), 0.5 nM [^3 H]-nitrendipinewith or without potential displacer in Tris buffer. The mixture was incubated for 60 minutes at 25° and subsequently terminated by rapid filtration through a glass fiber-filter. Membrane-bound [^3 H]-nitrendipine trapped in the filter was quantitated by scintillation counting. The inhibitory concentration (IC50) of potential displacer which gives 50% displacement of the total specifically bound [^3 H]-nitrendipine is presented as a measure of the affinity of such compound for the Ca^2 + channel.

[1] = test system: coronary vasoconstriction; conditions: cited from earlier work
calcium ions influx = conditions: cited from earlier work

Row | SMILES | EC50 (guinea pig left atria) [nM] | IC50 (alpha1 -adrenoceptors) [nM] | IC50 (Ca^2 + channels) [nM] | Intrinsic Activity (ratio of the maximum effect of the test compound to that of Bay K 8644) (guinea pig left atria) [%] | toxicity [1] | calcium ion influx and resulting effects (calcium ions influx) | potency as a calcium agonist relative to CGP28392 (calcium ions influx; compared with CGP28392)
1 | COC(=O)C1=C(C)NC(C)=C([N+](=O)[O-])C1c1cccc(OCCCN2CCN(c3ccccc3OC)CC2)c1 (stereo not shown) [Example 89] | 20000 | 71 | 4000 | 20 |  |  | 
2 | COc1ccccc1N1CCN(CCOC(=O)C2=C(C)NC(C)=C([N+](=O)[O-])C2c2ccccc2C(F)(F)F)CC1 (stereo not shown) [Example 2, 1,4-Dihydro-2,6-Dimethyl-5-nitro-4-[2-(trifluoromethyl)phenyl]-[2-[4-(2-methoxyphenyl)-1-piperazinyl]ethyl]ester-3-pyridinecarboxylic acid] | 44 | 800 | 29 | 145 |  |  | 
3 | CCOc1cccc(C2C(C(=O)OC)=C(C)NC(C)=C2[N+](=O)[O-])c1OCCCCN1CCN(c2ccccc2OC)CC1 (stereo not shown) [Example 109] | > 100000 | 610 | 790 | 0 |  |  | 
4 | COC(=O)C1=C(C)NC(C)=C([N+](=O)[O-])C1c1ccccc1OCCCCCN1CCN(c2ccccc2OC)CC1 (stereo not shown) [Example 59, 1,4-dihydro-2,6-dimethyl-4[2-(5-(4-(2-methoxyphenyl)-1-piperazinyl)pentoxyl)-phenyl]-5-nitro-methyl ester-3-pyridinecarboxylic acid] | 1000 | 130 | 290 | 35 |  |  | 
5 | COc1cccc(OC)c1OCCNCCOC(=O)C1=C(C)NC(C)=C([N+](=O)[O-])C1c1ccccc1C(F)(F)F (stereo not shown) [Example 13] | 30000 | > 10000 | 830 | 50 |  |  | 
6 | CCOc1cccc(C2C(C(=O)OC)=C(C)NC(C)=C2[N+](=O)[O-])c1OCCCN1CCN(c2ccccc2OC)CC1 (stereo not shown) [Example 108] | > 100000 | 1200 | 990 | 0 |  |  | 
7 | COC(=O)C1=C(C)NC(C)=C([N+](=O)[O-])C1c1ccccc1OCCCCCCCCCCN1CCN(c2ccccc2OC)CC1 (stereo not shown) [Example 61, 1,4-dihydro-2,6-dimethyl-4[2(10-(4-(2-methoxyphenyl)-piperazinyl)decyloxy)phenyl]-5-nitro-methyl ester-3-pyridinecarboxylic acid] | > 100000 | 1100 | 67 | 10 |  |  | 
8 | COC(=O)C1=C(C)NC(C)=C([N+](=O)[O-])C1c1ccccc1OCCCN1CCN(c2ccccc2OC)CC1 (stereo not shown) [Example 88] | 2000 | 260 | 4800 | 50 |  |  | 
9 | COC(=O)C1=C(C)NC(C)=C([N+](=O)[O-])C1c1ccccc1C(F)(F)F (stereo not shown) [Bay K8644] | 150 |  |  | 100 | toxic because it causes coronary vasoconstriction | promote an influx of calcium ions, therefore producing positive inotropic and vasoconstrictor effects | more than 10 times
10 | COC(=O)C1=C(C)NC(C)=C([N+](=O)[O-])C1c1cccc(OC)c1OCCCN1CCN(c2ccccc2OC)CC1 (stereo not shown) [Example 106] | > 100000 | 140 | 250 | 0 |  |  | 
11 | CCOC(=O)C1=C(C)NC2=C(C(=O)OC2)C1c1ccccc1OC(F)F (stereo not shown) [CGP28392] |  |  |  |  |  | promote an influx of calcium ions, therefore producing positive inotropic and vasoconstrictor effects | 
12 | COC(=O)C1=C(C)NC(C)=C([N+](=O)[O-])C1c1cccc(OCCCCN2CCN(c3ccccc3OC)CC2)c1 (stereo not shown) [Example 107] | > 100000 | 410 | 4100 | 0 |  |  | 
13 | COC(=O)C1=C(C)NC(C)=C([N+](=O)[O-])C1c1cccc([N+](=O)[O-])c1OCCCN1CCN(c2ccccc2OC)CC1 (stereo not shown) [Example 139] | > 100000 | 140 | 120 | 0 |  |  | 
14 | COc1ccccc1N1CCN(CCCCOC(=O)C2=C(C)NC(C)=C([N+](=O)[O-])C2c2ccccc2C(F)(F)F)CC1 (stereo not shown) [Example 56] | 6000 | 300 | 300 | 100 |  |  | 
15 | COC(=O)C1=C(C)NC(C)=C([N+](=O)[O-])C1c1ccccc1OCCCCN1CCN(c2ncccn2)CC1 (stereo not shown) [Example 60, 1,4-dihydro-2,6-dimethyl-'nitro-4-[2-(4-(4-(2-pyrimidinyl)-piperazinyl)butoxy)phenyl]methylester-36pyridinecarboxylic acid] | 1000 | 4900 | 1000 | 50 |  |  | 

Continued, in another order:

Row | EC50 (guinea pig left atria) [nM] | IC50 (alpha1 -adrenoceptors) [nM] | IC50 (Ca^2 + channels) [nM] | SMILES | Intrinsic Activity (ratio of the maximum effect of the test compound to that of Bay K 8644) (guinea pig left atria) [%] | toxicity [1] | calcium ion influx and resulting effects (calcium ions influx) | potency as a calcium agonist relative to CGP28392 (calcium ions influx; compared with CGP28392)
16 | > 100000 | 4500 | 1700 | COC(=O)C1=C(C)NC(C)=C([N+](=O)[O-])C1c1cccc(OCCCN2CCN(C(c3ccc(F)cc3)c3ccc(F)cc3)CC2)c1 (stereo not shown) [Example 123] | 0 |  |  | 
17 | > 100000 | 160 | 1000 | COC(=O)C1=C(C)NC(C)=C([N+](=O)[O-])C1c1cccc(OC)c1OCCCCN1CCN(c2ccccc2OC)CC1 (stereo not shown) [Example 110] | 0 |  |  | 
18 | > 100000 | 250 | 180 | COC(=O)C1=C(C)NC(C)=C([N+](=O)[O-])C1c1cc(Br)ccc1OCCCCN1CCN(c2ccccc2OC)CC1 (stereo not shown) [Example 142] | 0 |  |  | 
19 | 30000 | 440 | 470 | CCOC(=O)C1=C(C)NC(C)=C([N+](=O)[O-])C1c1ccccc1OCCCCN1CCN(c2ccccc2OC)CC1 (stereo not shown) [Example 120] | 50 |  |  | 
20 | > 100000 | 280 | 10000 | CCOC(=O)C1=C(C)NC(C)=C([N+](=O)[O-])C1c1cccc(OCCCN2CCN(c3ccccc3OC)CC2)c1 (stereo not shown) [Example 117] | 0 |  |  | 
21 | > 100000 | 240 | 1600 | COC(=O)C1=C(C)NC(C)=C([N+](=O)[O-])C1c1cccc(OC)c1OC/C=C\CN1CCN(c2ccccc2OC)CC1 (stereo not shown) [Example 114] | 0 |  |  | 
22 | > 100000 | 570 | 3300 | COC(=O)C1=C(C)NC(C)=C([N+](=O)[O-])C1c1cccc(OCCCCCN2CCN(c3ccccc3OC)CC2)c1 (stereo not shown) [Example 113] | 0 |  |  | 
23 | 3000 | 330 | 380 | COC(=O)C1=C(C)NC(C)=C([N+](=O)[O-])C1c1cccc(OCCCCCCN2CCN(c3ccccc3OC)CC2)c1 (stereo not shown) [Example 130] | 25 |  |  | 
24 | > 100000 | 500 | 580 | COC(=O)C1=C(C)NC(C)=C([N+](=O)[O-])C1c1ccccc1OCCCCN1CCN(c2ccccn2)CC1 (stereo not shown) [Example 116] | 0 |  |  | 
25 | > 100000 | 190 | 850 | COC(=O)C1=C(C)NC(C)=C([N+](=O)[O-])C1c1cccc(OC)c1OCCCCCN1CCN(c2ccccc2OC)CC1 (stereo not shown) [Example 111] | 0 |  |  | 
26 | > 100000 | 180 | 1700 | CCOc1cccc(C2C(C(=O)OC)=C(C)NC(C)=C2[N+](=O)[O-])c1OCCCCCN1CCN(c2ccccc2OC)CC1 (stereo not shown) [Example 112] | 0 |  |  | 
27 | > 100000 | 440 | 1400 | COC(=O)C1=C(C)NC(C)=C([N+](=O)[O-])C1c1cccc(OCC=CCN2CCN(c3ccccc3OC)CC2)c1 (stereo not shown) [Example 125] | 0 |  |  | 

From patent US4868181A, “1,4-dihydropyridine derivatives with calcium agonist and alpha1 -antagonist activity” (E. I. Du Pont de Nemours and Company, priority 1987, dated 1989)
